According to patent EP0687685A1, “PHYSIOLOGICALLY ACTIVE PEPTIDE” (TEIJIN LIMITED, priority 1993, dated 1994):
Positions of bridges follow the written chain, without caps; N, C: chain ends. Residues, ends and D or L forms follow the SMILES beside them. Chains are numbered I, II in the order given. *: point of attachment. Mob = COc1ccc(C*)cc1; Acm = CC(=O)NC*

How the values were obtained:
[1] = target: T1, human type II PLA₂ (Homo sapiens, UniProt P14555); assay: Inhibition of binding between heparin and human II-type PLA₂ (heparin-bound plate, biotinated PLA₂)
T1 construct: made in house; host or cells: Sf9 insect cells, baculovirus (AcNPV), vector pAcTJI1; purified from culture supernatant
T1 sequence (P14555 21-144): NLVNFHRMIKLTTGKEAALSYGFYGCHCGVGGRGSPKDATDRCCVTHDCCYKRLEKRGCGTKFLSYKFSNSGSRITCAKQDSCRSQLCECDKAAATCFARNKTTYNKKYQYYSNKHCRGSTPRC
Method: 500 µg of human type II (non-pancreatic) purified in Reference Example 1 was reacted with 2 ml of a solution of 5 mM sulfosuccinyl 6-(biotinamide hexose) in 0.1M NaHCO₃ at a room temperature for one hour, and the product was purified by a heparin Sepharose column to obtain biotinated human type II PLA₂.
50 µl of a phosphate buffered saline (PBS) containing 50 µg/ml poly-L-lysine was added to each well of a 96-well ELISA plate, and after incubation at room temperature for an hour, each well was twice washed with PBS, 50 µl of PBS solution containing 20 µg/ml heparin was added to each well, and a reaction was further carried out at a room temperature for an hour. Each well was twice washed with PBS, 200 µl of PBS solution containing 30 mg/ml bovine serum albumin (BSA) was added to each well, and after reaction at 37°C for an hour, the plate was stored at 4°C.
To each well of a peparin-bound plate prepared in Reference Example 3, 50 µl of a solution containing a peptide obtained in Examples 1 to 10 was added. After incubating at room temperature for 45 minutes, 50 µg/ml biotinated human II-type PLA₂ obtained in Example 2 was added thereon, and reaction was further carried out at room temperature for an hour. Each well was washed three times with PBS containing 0.05% Tween 20, 50 µl of a 3% BSA/PBS solution containing alkaline phosphatase-conjugated streptoavidin (Taga, ×2000 dilution) was added thereon, and a reaction was carried out at a room temperature for an hour. Each well was washed three times with PBS containing 0.05% Tween 20, 100 µl of a 1 mM p-nitrophenylphosphate/1M ethanolamine aqueous solution (pH 9.8) was added thereon, and a reaction was carried out at room temperature for an hour. Absorption of reaction mixture was measured at 405 nm using a microplate reader (Molecular Device Inc). A result is shown in Fig. 9, and IC₅₀ (µM) was also obtained.

[2] = target: T1, human type II PLA₂; assay: Enzyme inhibition of human type II PLA₂ in the presence of heparin, radiolabeled synthetic phospholipid (method of Dole); format: biochemical; settings: PLA₂ enzyme 200 ng/ml; for inhibition at 5 µg/mL / remaining activity at 5 µg/mL: peptide 5 µg/ml; for inhibition at 10 µg/mL / remaining activity at 10 µg/mL: peptide 10 µg/ml; for inhibition at 50 µg/mL / remaining activity at 50 µg/mL: peptide 50 µg/ml; for inhibition at 100 µg/mL / remaining activity at 100 µg/mL: peptide 100 µg/ml
[3] = target: T1, human type II PLA₂; assay: Enzyme inhibition of human type II PLA₂ in the presence of heparin, radioactive phospholipid of E. coli origin; format: biochemical; settings: heparin 10 µg/ml, PLA₂ enzyme 10 ng/ml
[4] = heparin 50 µg/ml, read-out: PLA₂enzyme activity (%)
[5] = heparin 10 µg/ml, read-out: PLA₂enzyme activity (%)

Row | SMILES | inhibition at 5 µg/mL ([2]; heparin 50 µg/ml) | remaining activity at 5 µg/mL [2, 4] | inhibition at 10 µg/mL ([2]; heparin 50 µg/ml) | remaining activity at 10 µg/mL [2, 4] | inhibition at 50 µg/mL ([2]; heparin 50 µg/ml) | remaining activity at 50 µg/mL [2, 4] | inhibition at 100 µg/mL ([2]; heparin 50 µg/ml) | remaining activity at 100 µg/mL [2, 4] | further results
1 | COc1ccc(CSC[C@H](NC(=O)CNC(=O)[C@H](CCCNC(=N)N)NC(=O)[C@@H](N)CCCCN)C(=O)NCC(=O)N[C@H](C(=O)N[C@@H](CCCCN)C(=O)N[C@@H](Cc2ccccc2)C(=O)N[C@@H](CC(C)C)C(=O)N[C@@H](CO)C(=O)N[C@@H](Cc2ccc(O)cc2)C(=O)N[C@@H](CCCCN)C(=O)N[C@@H](Cc2ccccc2)C(=O)N[C@@H](CO)C(=O)N[C@@H](CS)C(=O)O)[C@@H](C)O)cc1 [Peptide (1)] (H-KRGC(Mob)GTKFLSYKFSC-OH) |  |  |  |  |  |  |  |  | IC50 [1]: 1400 nM
2 | COc1ccc(CSC[C@H](NC(=O)CNC(=O)[C@H](CCCNC(=N)N)NC(=O)[C@@H](N)CCCCN)C(=O)NCC(=O)N[C@H](C(=O)N[C@@H](CCCCN)C(=O)N[C@@H](Cc2ccccc2)C(=O)N[C@@H](CC(C)C)C(=O)N[C@@H](CO)C(=O)N[C@@H](Cc2ccc(O)cc2)C(=O)N[C@@H](CCCCN)C(=O)N[C@@H](Cc2ccccc2)C(=O)N[C@@H](CO)C(=O)N[C@@H](CSSC[C@H](NC(=O)[C@H](CO)NC(=O)[C@H](Cc2ccccc2)NC(=O)[C@H](CCCCN)NC(=O)[C@H](Cc2ccc(O)cc2)NC(=O)[C@H](CO)NC(=O)[C@H](CC(C)C)NC(=O)[C@H](Cc2ccccc2)NC(=O)[C@H](CCCCN)NC(=O)[C@@H](NC(=O)CNC(=O)[C@H](CSCc2ccc(OC)cc2)NC(=O)CNC(=O)[C@H](CCCNC(=N)N)NC(=O)[C@@H](N)CCCCN)[C@@H](C)O)C(=O)O)C(=O)O)[C@@H](C)O)cc1 [Peptide (2)] (I: H-KRGC(Mob)GTKFLSYKFSC-OH / II: H-KRGC(Mob)GTKFLSYKFSC-OH; disulfide I:15-II:15) | 25% | 75% | 52% | 48% | 81% | 19% | 89% | 11% | 
3 | COc1ccc(CSC[C@H](NC(=O)[C@H](CO)NC(=O)[C@H](Cc2ccccc2)NC(=O)[C@H](CCCCN)NC(=O)[C@H](Cc2ccc(O)cc2)NC(=O)[C@H](CO)NC(=O)[C@H](CC(C)C)NC(=O)[C@H](Cc2ccccc2)NC(=O)[C@H](CCCCN)NC(=O)[C@@H](NC(=O)CNC(=O)[C@H](CS)NC(=O)CNC(=O)[C@H](CCCNC(=N)N)NC(=O)[C@@H](N)CCCCN)[C@@H](C)O)C(=O)O)cc1 [Peptide (3)] (H-KRGCGTKFLSYKFSC(Mob)-OH) |  |  |  |  |  |  |  |  | IC50 [1]: 2700 nM
4 | CC(C)C[C@@H]1NC(=O)[C@H](Cc2ccccc2)NC(=O)[C@H](CCCCN)NC(=O)[C@H]([C@@H](C)O)NC(=O)CNC(=O)[C@@H](NC(=O)CNC(=O)[C@H](CCCNC(=N)N)NC(=O)[C@@H](N)CCCCN)CSSC[C@@H](C(=O)O)NC(=O)[C@H](CO)NC(=O)[C@H](Cc2ccccc2)NC(=O)[C@H](CCCCN)NC(=O)[C@H](Cc2ccc(O)cc2)NC(=O)[C@H](CO)NC(=O)[C@H](CC(C)C)NC(=O)[C@H](Cc2ccccc2)NC(=O)[C@H](CCCCN)NC(=O)[C@H]([C@@H](C)O)NC(=O)CNC(=O)[C@@H](NC(=O)CNC(=O)[C@H](CCCNC(=N)N)NC(=O)[C@@H](N)CCCCN)CSSC[C@@H](C(=O)O)NC(=O)[C@H](CO)NC(=O)[C@H](Cc2ccccc2)NC(=O)[C@H](CCCCN)NC(=O)[C@H](Cc2ccc(O)cc2)NC(=O)[C@H](CO)NC1=O [Peptide (17)] (I: H-KRGCGTKFLSYKFSC-OH / II: H-KRGCGTKFLSYKFSC-OH; disulfide I:4-II:15, I:15-II:4) |  |  |  |  |  |  |  |  | inhibition at 1 µg/mL ([2]; peptide 1 µg/ml, heparin 10 µg/ml): 69%; remaining activity at 1 µg/mL ([2]; peptide 1 µg/ml, heparin 10 µg/ml, read-out: PLA₂enzyme activity (%)): 31%; inhibition at 5 µg/mL ([2]; heparin 10 µg/ml): 91%; remaining activity at 5 µg/mL [2, 5]: 9%; inhibition at 10 µg/mL ([2]; heparin 10 µg/ml): 94%; remaining activity at 10 µg/mL [2, 5]: 6%

Second part, led by results:

Row | inhibition at 5 µg/mL ([2]; heparin 50 µg/ml) | remaining activity at 5 µg/mL [2, 4] | inhibition at 10 µg/mL ([2]; heparin 50 µg/ml) | remaining activity at 10 µg/mL [2, 4] | inhibition at 50 µg/mL ([2]; heparin 50 µg/ml) | remaining activity at 50 µg/mL [2, 4] | inhibition at 100 µg/mL ([2]; heparin 50 µg/ml) | remaining activity at 100 µg/mL [2, 4] | SMILES | further results
5 | 43% | 57% | 63% | 37% | 78% | 22% | 82% | 18% | CC(=O)NCSC[C@H](NC(=O)CNC(=O)[C@H](CCCNC(=N)N)NC(=O)[C@@H](N)CCCCN)C(=O)NCC(=O)N[C@H](C(=O)N[C@@H](CCCCN)C(=O)N[C@@H](Cc1ccccc1)C(=O)N[C@@H](CC(C)C)C(=O)N[C@@H](CO)C(=O)N[C@@H](Cc1ccc(O)cc1)C(=O)N[C@@H](CCCCN)C(=O)N[C@@H](Cc1ccccc1)C(=O)N[C@@H](CO)C(=O)N[C@@H](CSSC[C@H](NC(=O)[C@H](CO)NC(=O)[C@H](Cc1ccccc1)NC(=O)[C@H](CCCCN)NC(=O)[C@H](Cc1ccc(O)cc1)NC(=O)[C@H](CO)NC(=O)[C@H](CC(C)C)NC(=O)[C@H](Cc1ccccc1)NC(=O)[C@H](CCCCN)NC(=O)[C@@H](NC(=O)CNC(=O)[C@H](CSCNC(C)=O)NC(=O)CNC(=O)[C@H](CCCNC(=N)N)NC(=O)[C@@H](N)CCCCN)[C@@H](C)O)C(=O)O)C(=O)O)[C@@H](C)O [Peptide (11)] (I: H-KRGC(Acm)GTKFLSYKFSC-OH / II: H-KRGC(Acm)GTKFLSYKFSC-OH; disulfide I:15-II:15) | 
6 | 42% | 58% | 62% | 38% | 81% | 19% | 86% | 14% | CC(=O)NCSC[C@H](NC(=O)[C@H](CO)NC(=O)[C@H](Cc1ccccc1)NC(=O)[C@H](CCCCN)NC(=O)[C@H](Cc1ccc(O)cc1)NC(=O)[C@H](CO)NC(=O)[C@H](CC(C)C)NC(=O)[C@H](Cc1ccccc1)NC(=O)[C@H](CCCCN)NC(=O)[C@@H](NC(=O)CNC(=O)[C@H](CSSC[C@H](NC(=O)CNC(=O)[C@H](CCCNC(=N)N)NC(=O)[C@@H](N)CCCCN)C(=O)NCC(=O)N[C@H](C(=O)N[C@@H](CCCCN)C(=O)N[C@@H](Cc1ccccc1)C(=O)N[C@@H](CC(C)C)C(=O)N[C@@H](CO)C(=O)N[C@@H](Cc1ccc(O)cc1)C(=O)N[C@@H](CCCCN)C(=O)N[C@@H](Cc1ccccc1)C(=O)N[C@@H](CO)C(=O)N[C@@H](CSCNC(C)=O)C(=O)O)[C@@H](C)O)NC(=O)CNC(=O)[C@H](CCCNC(=N)N)NC(=O)[C@@H](N)CCCCN)[C@@H](C)O)C(=O)O [Peptide (13)] (I: H-KRGCGTKFLSYKFSC(Acm)-OH / II: H-KRGCGTKFLSYKFSC(Acm)-OH; disulfide I:4-II:4) | 
7 | 59% | 41% | 72% | 28% | 82% | 18% | 90% | 10% | CC(C)C[C@@H]1NC(=O)[C@H](Cc2ccccc2)NC(=O)[C@H](CCCCN)NC(=O)[C@H]([C@@H](C)O)NC(=O)CNC(=O)[C@@H](NC(=O)CNC(=O)[C@H](CCCNC(=N)N)NC(=O)[C@@H](N)CCCCN)CSSC[C@H](NC(=O)CNC(=O)[C@H](CCCNC(=N)N)NC(=O)[C@@H](N)CCCCN)C(=O)NCC(=O)N[C@@H]([C@@H](C)O)C(=O)N[C@@H](CCCCN)C(=O)N[C@@H](Cc2ccccc2)C(=O)N[C@@H](CC(C)C)C(=O)N[C@@H](CO)C(=O)N[C@@H](Cc2ccc(O)cc2)C(=O)N[C@@H](CCCCN)C(=O)N[C@@H](Cc2ccccc2)C(=O)N[C@@H](CO)C(=O)N[C@H](C(=O)O)CSSC[C@@H](C(=O)O)NC(=O)[C@H](CO)NC(=O)[C@H](Cc2ccccc2)NC(=O)[C@H](CCCCN)NC(=O)[C@H](Cc2ccc(O)cc2)NC(=O)[C@H](CO)NC1=O [Peptide (16)] (I: H-KRGCGTKFLSYKFSC-OH / II: H-KRGCGTKFLSYKFSC-OH; disulfide I:4-II:4, I:15-II:15) | inhibition at 1 µg/mL ([3]; peptide 1 µg/ml): 88%; remaining activity at 1 µg/mL ([3]; peptide 1 µg/ml): 12%; inhibition at 5 µg/mL ([3]; peptide 5 µg/ml): 97%; remaining activity at 5 µg/mL ([3]; peptide 5 µg/ml): 3%; inhibition at 10 µg/mL ([3]; peptide 10 µg/ml): 98%; remaining activity at 10 µg/mL ([3]; peptide 10 µg/ml): 2%
